Test results as given in patent publication US7045523B2 (Novartis AG, priority 2001, dated 2006).

How the values were obtained:
K562 cells = assay: Apoptosis assay, flow cytometry with APO2.7 mAb, in K562 cells with or without 10 days of telomestatin; type: cell-based; conditions: for induction of apoptosis / chemosensitivity in telomestatin-treated K562 cells compared with control cells: after exposure to the agent, the negative results are data not shown; for APO2.7 (%): 48 hours, K562 control cells or cells cultured with telomestatin 2 μM for 10 days
Procedure: Apoptosis assay. The incidence of apoptosis was determined by flow cytometric analysis with the FITC-conjugated APO2.7 monoclonal antibody (clone 2.7), which was raised against the 38 kDa mitochondrial membrane protein (7A6 antigen) and is expressed by cells undergoing apoptosis (Nakajima et al., 2001).
To assess the effects of telomerase inhibition in modulating responses to these reagents, experiments focused on early passaged telomestatin-treated K562 cells (PD10). In this series of experiments, K562 cells are cultured with telomestatin for 10 days, subsequently the telomestatin-treated K562 cells are incubated with the agents for 48 hours, and the incidence of apoptosis is determined by flow cytometric analysis with APO2.7 mAb (Table A). Apo2.7 is the apoptosis index. Higher score means that apoptosis is induced more powerfully.

OM9;22 or OM9;22R cells = assay: Cell proliferation (growth kinetics) of OM9;22 / OM9;22R cells; type: cell-based, human; conditions: OM9;22 or Imatinib-resistant OM9;22R cells
Procedure: Cells and cell culture: The Ph-positive acute lymphoblastic cell line OM9;22 has been described previously (Ohyashiki et al., 1993). K562 cells were obtained from the American Type Culture Collection (Rockville, Md.). These cell lines were cultured in McCoy's 5A modified medium (Life Technology, Inc.) supplemented with 10% fetal calf serum (Hyclone Laboratories, Logan, Utah).
Effects of telomestatin on cell proliferation. We characterize the growth properties of telomestatin-treated cells. […] In a further study, we can characterize the ability of telomestatin to inhibit BCR-ABL transformation.

[1] = test system: human normal hematopoietic progenitor cells; assay: Clonogenic assay on normal hematopoietic progenitor cells; type: cell-based; conditions: at concentrations 10 times higher than those that completely inhibit colonies from OM9;22R cells

| SMILES | induction of apoptosis / chemosensitivity in telomestatin-treated K562 cells compared with control cells (K562 cells) | APO2.7 (%) (K562 cells; 10 nM agent) | APO2.7 (%) (K562 cells; 50 nM agent) | APO2.7 (%) (K562 cells; 100 nM agent) | APO2.7 (%) (K562 cells; 500 nM agent) | APO2.7 (%) (K562 cells; 1000 nM agent) | time until proliferation is slowed (OM9;22 or OM9;22R cells) | sensitivity of human normal hematopoietic progenitor cells [1] |
| --- | --- | --- | --- | --- | --- | --- | --- | --- |
| Sc1ncnc2nc[nH]c12 [6-mercaptopurine (6-MP), 6-mercaptopurine] | significant chemosensitivity is not observed | – | – | – | – | – | – | – |
| COc1cccc2c1C(=O)c1c(O)c3c(c(O)c1C2=O)C[C@@](O)(C(C)=O)C[C@@H]3O[C@H]1C[C@H](N)[C@H](O)[C@H](C)O1 [DNR (control), Daunorubicin] | enhanced induction of apoptosis | 11% | 23% | 36% | 53% | – | – | – |
| O=C1c2c(O)ccc(O)c2C(=O)c2c(NCCNCCO)ccc(NCCNCCO)c21 [MIT (control), mitoxantrone] | enhanced induction of apoptosis | 10% | 12% | 17% | 29% | 38% | – | – |
| CC[C@]1(O)C[C@H]2CN(CCc3c([nH]c4ccccc34)[C@@](C(=O)OC)(c3cc4c(cc3OC)N(C=O)[C@H]3[C@@](O)(C(=O)OC)[C@H](OC(C)=O)[C@]5(CC)C=CCN6CC[C@]43[C@@H]65)C2)C1 [VCR (control), vincristine] | enhanced induction of apoptosis | 12% | 18% | 24% | 29% | 34% | – | – |
| Nc1ccn([C@@H]2O[C@H](CO)[C@@H](O)[C@@H]2O)c(=O)n1 [cytosine arabimoside, cytosine arabinoside] | significant chemosensitivity is not observed | – | – | – | – | – | – | – |
| COc1cc([C@@H]2c3cc4c(cc3[C@@H](O[C@@H]3O[C@@H]5CO[C@@H](C)O[C@H]5[C@H](O)[C@H]3O)[C@H]3COC(=O)[C@H]23)OCO4)cc(OC)c1O [etoposide (VP-16), etoposide] | significant chemosensitivity is not observed | – | – | – | – | – | – | – |
| CN(Cc1cnc2nc(N)nc(N)c2n1)c1ccc(C(=O)N[C@@H](CCC(=O)O)C(=O)O)cc1 [methotrexate (MTX), methotrexate] | significant chemosensitivity is not observed | – | – | – | – | – | – | – |
| Cc1oc2nc1-c1nc(co1)-c1nc(co1)-c1nc(co1)-c1nc(co1)-c1nc(co1)C1=NC(CS1)c1nc-2c(C)o1 (centres unmarked) [telomestatin] | – | – | – | – | – | – | ≤ 2 weeks | significantly less sensitive |
